Legend:
Type in all cases: functional
[1] = tested on: T47D; assay: Growth inhibition of human T47D cells assessed as cell growth at 10 uM after 48 hrs by sulforhodamine B assay; conditions: read-out: Activity
[2] = Growth inhibition of human Hs 578T cells assessed as cell growth at 10 uM after 48 hrs by sulforhodamine B assay; conditions: read-out: Activity
[3] = tested on: UO-31; assay: Growth inhibition of human UO31 cells assessed as cell growth at 10 uM after 48 hrs by sulforhodamine B assay; conditions: UO-31, 48 h, read-out: Activity
[4] = tested on: PC-3; assay: Growth inhibition of human PC3 cells assessed as cell growth at 10 uM after 48 hrs by sulforhodamine B assay; conditions: PC-3, 48 h, read-out: Activity
[5] = tested on: SK-OV-3; assay: Growth inhibition of human SKOV3 cells assessed as cell growth at 10 uM after 48 hrs by sulforhodamine B assay; conditions: SK-OV-3, 48 h, read-out: Activity
[6] = Growth inhibition of human NCI-ADR-RES cells assessed as cell growth at 10 uM after 48 hrs by sulforhodamine B assay; conditions: read-out: Activity
[7] = tested on: OVCAR-5; assay: Growth inhibition of human OVCAR5 cells assessed as cell growth at 10 uM after 48 hrs by sulforhodamine B assay; conditions: OVCAR-5, 48 h, read-out: Activity
[8] = tested on: OVCAR-8; assay: Growth inhibition of human OVCAR8 cells assessed as cell growth at 10 uM after 48 hrs by sulforhodamine B assay; conditions: OVCAR-8, 48 h, read-out: Activity
[9] = tested on: OVCAR-3; assay: Growth inhibition of human OVCAR3 cells assessed as cell growth at 10 uM after 48 hrs by sulforhodamine B assay; conditions: OVCAR-3, 48 h, read-out: Activity
[10] = tested on: U-251; assay: Growth inhibition of human U251 cells assessed as cell growth at 10 uM after 48 hrs by sulforhodamine B assay; conditions: U-251, 48 h, read-out: Activity
[11] = tested on: SF-268; assay: Growth inhibition of human SF268 cells assessed as cell growth at 10 uM after 48 hrs by sulforhodamine B assay; conditions: SF-268, 48 h, read-out: Activity
[12] = tested on: COLO 205; assay: Growth inhibition of human COLO205 cells assessed as cell growth at 10 uM after 48 hrs by sulforhodamine B assay; conditions: COLO 205, 48 h, read-out: Activity
[13] = tested on: NCI-H522; assay: Growth inhibition of human NCI-H522 cells assessed as cell growth at 10 uM after 48 hrs by sulforhodamine B assay; conditions: NCI-H522, 48 h, read-out: Activity
[14] = tested on: HOP-62; assay: Growth inhibition of human HOP62 cells assessed as cell growth at 10 uM after 48 hrs by sulforhodamine B assay; conditions: HOP-62, 48 h, read-out: Activity
[15] = tested on: HL-60(TB); assay: Growth inhibition of human HL-60(TB) cells assessed as cell growth at 10 uM after 48 hrs by sulforhodamine B assay; conditions: HL-60, 48 h, read-out: Activity

In the case of `COc1cc(-c2nn(-c3cccc(NC(=O)Nc4ccccc4)c3)cc2-c2ccncc2)ccc1Cl`, the growth at 10 µM [1] is reported as 75.6%, the growth at 10 µM [2] is reported as 82.7% and the growth at 10 µM [3] is reported as 56.5%. It also gave a growth at 10 µM [4] of 52.5%, a growth at 10 µM [5] of 97.1% and a growth at 10 µM [6] of 72.8%. For the same compound, the growth at 10 µM [7] was 91.3%, the growth at 10 µM [8] was 77.9% and the growth at 10 µM [9] was 86.4%. It also gave a growth at 10 µM [10] of 85%, a growth at 10 µM [11] of 81.2% and a growth at 10 µM [12] of 92.4%. For the same compound, the growth at 10 µM [13] was 67.4%, the growth at 10 µM [14] was 87.2% and the growth at 10 µM [15] was 91.3%.
With `COc1cc(-c2nn(-c3cccc(NC(=O)c4ccc(Br)c(C)c4)c3)cc2-c2ccncc2)ccc1Cl` the growth at 10 µM [1] was 70.3%, the growth at 10 µM [2] was 74.9% and the growth at 10 µM [3] was 53.8%. It also gave a growth at 10 µM [4] of 59.4%, a growth at 10 µM [5] of 90.8% and a growth at 10 µM [6] of 66.5%. The growth at 10 µM [7] was 90.7%, the growth at 10 µM [8] was 77.3% and the growth at 10 µM [9] was 90.9%. It also gave a growth at 10 µM [10] of 73.7%, a growth at 10 µM [11] of 84.1% and a growth at 10 µM [12] of 76.2%. For the same compound, the growth at 10 µM [13] was 45.1%, the growth at 10 µM [14] was 91.8% and the growth at 10 µM [15] was 114%.
In the case of `O=C(Nc1cccc(-n2cc(-c3ccncc3)c(-c3ccc(Cl)c(O)c3)n2)c1)c1ccccc1`, the growth at 10 µM [1] is reported as 73.9%, the growth at 10 µM [2] is reported as 48.4% and the growth at 10 µM [3] is reported as 83.1%. The growth at 10 µM [4] was 50.3%, the growth at 10 µM [5] was 80.1% and the growth at 10 µM [6] was 62.7%. For the same compound, the growth at 10 µM [7] was 115%, the growth at 10 µM [8] was 50.9% and the growth at 10 µM [9] was 82.1%. The growth at 10 µM [10] was 75.4%, the growth at 10 µM [11] was 68.3% and the growth at 10 µM [12] was 100%. For the same compound, the growth at 10 µM [13] was 42.3%, the growth at 10 µM [14] was 46.7% and the growth at 10 µM [15] was 167%.
